In patent US9187518B2, “Antiangiogenic brassinosteroid compounds” (CONSEJO NACIONAL DE INVESTIGACIONES CIENTIFICAS Y TECNICAS …, priority 2011, dated 2015):

Key:
[1] = tested on: HUVEC cells; assay: Capillary tube formation on a Matrigel; type: cell-based, human; conditions: for formation of capillary tube like structures: 20 μM and 40 μM, comparative assay; for antiangiogenic activity in the tube-like formation assay in HUVEC cells: overall conclusion
Procedure: The formation of capillary tube like structures by HUVEC cells was analyzed on 24-well cell culture plates coated with an extracellular membrane matrix (Matrigel; BD Biosciences).
Matrigel was thawed at 4° C. Using precooled plates and tips, 100 μl/well of Matrigel was distributed and allowed to gelify at 37° C. for at least 30 min. Cells were seeded on the polymerized Matrigel (5 to 8×10^4 cells/well). The plate was incubated at 37° C., and tube formation was observed under a optic inverted microscope. Digital pictures were taken at different times with a camera. Tubular structures were quantified by manual counting of low power fields (25×) and inhibition percentage was expressed using untreated wells as 100%.
The formation of capillary tube-like structures by HUVEC cells was analyzed on 24-well cell culture plates coated with an extracellular membrane matrix (Matrigel; BD Biosciences). Matrigel was thawed at 4° C. Using precooled plates and tips, 100 μl/well of Matrigel was distributed and allowed to gelify at 37° C. for at least 30 min. Cells were seeded on the polymerized Matrigel (5 to 8×10^4 cells/well) in absence and presence of concentrations of 20 μM and 40 μM of each compound. The plate was incubated at 37° C., and tube formation was observed under an optic inverted microscope. Compound 1 was used as positive control.

[2] = tested on: TNF-α; conditions: human epithelial cells derived from ocular tissues; earlier work; cited from earlier work
[3] = tested on: TNF-α; conditions: LPS-stimulated macrophages in vitro; earlier work; cited from earlier work
[4] = tested on: HSV-1; conditions: murine model of HSV-1 corneal infection; previously reported; cited from earlier work
[5] = tested on: IL-6; conditions: human epithelial cells derived from ocular tissues; earlier work; cited from earlier work
[6] = tested on: NF-κB p65 subunit; assay: NF-κB p65 nuclear translocation in LPS-stimulated J774A.1 cells (IFI); type: cell-based, murine; conditions: J774A.1 induced with LPS 8 h, 40 μM (LPS only 79.4±1.2)
Procedure: J774A.1 cells were grown on coverslips in 24-well plates and stimulated with 100 ng/ml LPS (Sigma) in RPMI without SFB, for 8 h at 37° C.
After incubation, cells were fixed in methanol at −20° C. for 10 min, and processed for indirect immunofluorescence (IFI) with antibodies directed against the glycoprotein D (gD) of HSV-1 and/or the p65 subunit of NF-κB. After three washes with PBS, the coverslips were inverted on a drop of a 1/100 dilution of the first antibody, mouse monoclonal anti-gD and/or rabbit polyclonal anti p65 (Santa Cruz Biotechnology) and incubated for 30 min at 37° C., and then subjected to three additional washes with PBS. […]
The images obtained with a 40× magnification were imported into NIH Image J 1.34s program (designed by Wayne Rasband, NIMH, Bethesda). […] We analyzed the total and nuclear fluorescence of the individual cells and a mean fluorescence density was obtained for each. To compare the distribution of fluorescence within the cell, the results were analyzed in a spreadsheet (Excel®). The total fluorescence intensity or nuclear density was calculated as the total or nuclear average per total or nuclear area, respectively. Then, we calculated the percentage of nuclear intensity or the percentage of nuclear intensity with respect to the total intensity for each cell. […]

[7] = tested on: IL-6; assay: IL-6 secretion in LPS-stimulated J774A.1 macrophages (ELISA); type: cell-based, murine; conditions: J774A.1 stimulated with 100 ng/ml LPS 8 h, 40 μM
Procedure: J774A.1 cells grown in 24-well plates were incubated at 37° C. with 100 ng/ml of LPS, in duplicate. After 8 h, supernatants were harvested and murine IL-6 was quantified by commercial ELISA sets (BD OptEIA™, Becton Dickinson, USA) according to manufacturer instructions.

[8] = tested on: TNF-α; assay: TNF-α secretion in LPS-activated macrophages; type: cell-based; conditions: Macrophage, read-out: inhibitory concentration 50% (IC50), TNF-α secretion

With `CC[C@@H](C(C)C)[C@H](O)[C@@H](O)[C@@H](C)[C@H]1CC[C@H]2[C@@H]3CCC4=CC(=O)C=C[C@]4(C)[C@H]3CC[C@]12C` [Compound 2, (22S,23S)-22,23-dihydroxystigmasta-1,4-dien-3-one] as the compound, how does the “formation of capillary tube like structures” value [1] read?
The value was “showed inhibitory activity”.

Which “secretion of TNF-α” value [2] does the source give for `CC[C@@H](C(C)C)[C@H](O)[C@@H](O)[C@@H](C)[C@H]1CC[C@H]2[C@@H]3CC(=O)[C@@]4(O)C[C@@H](Br)CC[C@]4(C)[C@H]3CC[C@]12C` [Compound 6b, (22S,23S)-3β-bromo-5α,22,23-trihydroxystigmastan-6-one] here?
The value was “modulates”.

What about the “production of TNF-α” value [3] of the same compound?
The value was “hinders”.

And the “anti-HSV-1 activity in vivo” value [4]?
Its value is “does not exert an anti-HSV-1 activity in vivo”.

What about the “incidence of HSK” value [4] of the same compound?
The value was “significantly decreases”.

And the “secretion of IL-6” value [5]?
The value was “modulates”.

What does the source list for `CC[C@@H](C(C)C)[C@H](O)[C@@H](O)[C@@H](C)[C@H]1CCC2C3C[C@H](F)C4=CC(=O)CC[C@]4(C)C3CC[C@@]21C` (stereo partly shown) [Compound III]?
formation of capillary tube like structures [1]: develop the formation of capillary tube-like structures in same manner than control cells without treatment; antiangiogenic activity in the tube-like formation assay in HUVEC cells [1]: not present

Which results are given for `CC[C@@H](C(C)C)[C@H](O)[C@@H](O)[C@@H](C)[C@H]1CCC2C3C[C@H](F)C4=CC(=O)C=C[C@]4(C)C3CC[C@@]21C` (stereo partly shown) [Compound IV]?
formation of capillary tube like structures [1]: develop the formation of capillary tube-like structures in same manner than control cells without treatment; antiangiogenic activity in the tube-like formation assay in HUVEC cells [1]: not present

With `C[C@@H]1C[C@H]2[C@@H]3CCC4=CC(=O)C=C[C@]4(C)[C@@]3(F)[C@@H](O)C[C@]2(C)[C@@]1(O)C(=O)CO` [DEX, Dexamethasone, reference compound] as the compound, how does the “percentage of cells positive for NF-κB translocation to the nucleus” value [6] read?
Its value is 100%.

And the IL-6 level [7]?
Its IL-6 level is 637.1 ± 3.8 pg/mL.

And the IC50 [8]?
Its IC50 is 48 µM.
